Earlier results in paper PMC5189927 (Molecular Psychiatry, 2014).
Counter-ions that a name gives are not always drawn.

Tests used:
[1] = system: glucocerebrosidase
[2] = system: glucocerebrosidase; settings: healthy volunteers
[3] = system: α-galactosidase A; settings: Fabry patients with amenable mutations, phase 3, 12 months of treatment
[4] = system: α-galactosidase A; settings: healthy volunteers
[5] = system: β-hex A; settings: phase 1/2, Tay–Sachs and Sandhoff patients

**Q.** For `OC[C@H]1CNC[C@@H](O)[C@@H]1O` [isofagomine, isofagomine tartrate], which “Glucocerebrosidase levels in peripheral blood mononuclear cells” value ([1]; healthy volunteers (phase 1) and type I Gaucher patients (phase 2)) is on record?
**A.** Its value is “significantly increased”.

**Q.** What about the “Gaucher patients with clinically meaningful end points” value ([1]; phase 2, doses and dosing regimens assessed) of the same compound?
**A.** Its value is 1 of 18.

**Q.** And the “Increase in wild-type glucocerebrosidase levels” value [2]?
**A.** The value was “two- to threefold”.

**Q.** Which “Levels of kidney interstitial capillary GL-3” value [3] does the source give for `OC[C@H]1NC[C@H](O)[C@@H](O)[C@H]1O` [migalastat, deoxygalactonojirimycin hydrochloride] here?
**A.** Its value is “statistically significant reduction”.

**Q.** And the “Increase in wild-type α-galactosidase A levels” value [4]?
**A.** The value was “two- to threefold”.

**Q.** With `CCc1nc(N)nc(N)c1-c1ccc(Cl)cc1` [pyrimethamine, Pyrimethamine] as the compound, how does the Side effects [5] read?
**A.** The Side effects was “severe side effects”.

**Q.** What about the “β-hex A levels in patients” value [5] of the same compound?
**A.** The value was “increased β-hex A levels for all eight patients”.
